Experimental data: ChEMBL document CHEMBL1201862, “PubChem BioAssay data set” (2004)
Each block holds one compound with its values, some of them ahead of it. Active and inactive are the calls of the source.

Columns and labels:
[1] = NIH:OVCAR-3 ovarian cancer cell cytotoxicity, dose response, PAX8 inhibitor project, plate reader, dry powder samples (AID 743044); type: functional, cell-based
[2] = IOSE-T80 ovarian epithelial cell cytotoxicity, dose response, cytotoxicity control for PAX8 inhibitor project, plate reader, dry powder samples (AID 743045); type: functional, cell-based
[3] = cytotoxicity in OVCAR8 ovarian cancer cells, dose response, PAX8 project, cell-based, plate reader, dry powder samples (AID 743197); type: functional; conditions: OVCAR-8
[4] = A2780 ovarian cancer cell cytotoxicity, dose response, cytotoxicity control, plate reader, dry powder samples (AID 743046); type: functional, cell-based
[5] = Late stage assay provider results from the probe development effort to identify selective inhibitors of heat shock protein 90 (HSP90): Absorbance-based cell proliferation assay in MCF7 cells.; type: functional
[6] = Late stage assay provider results from the probe development effort to identify selective inhibitors of heat shock protein 90 (HSP90): Absorbance-based cell proliferation assay in SKBR3 cells.; type: functional; conditions: SK-BR-3
Cytochrome P450 2C19 = Cytochrome P450 2C19 (Homo sapiens, UniProt P33261); test: Cytochrome panel assay with activity outcomes. Panel member name: p450-cyp2c19 Compounds with AC50 equal or less than 10 uM are considered active; type: functional; conditions: read-out: AC50
Cytochrome P450 1A2 = target: T1, Cytochrome P450 1A2 (Homo sapiens, UniProt P05177);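 also: PubChem cytochrome P450 panel assay, CYP1A2 panel member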
T1 sequence (P05177 whole entry): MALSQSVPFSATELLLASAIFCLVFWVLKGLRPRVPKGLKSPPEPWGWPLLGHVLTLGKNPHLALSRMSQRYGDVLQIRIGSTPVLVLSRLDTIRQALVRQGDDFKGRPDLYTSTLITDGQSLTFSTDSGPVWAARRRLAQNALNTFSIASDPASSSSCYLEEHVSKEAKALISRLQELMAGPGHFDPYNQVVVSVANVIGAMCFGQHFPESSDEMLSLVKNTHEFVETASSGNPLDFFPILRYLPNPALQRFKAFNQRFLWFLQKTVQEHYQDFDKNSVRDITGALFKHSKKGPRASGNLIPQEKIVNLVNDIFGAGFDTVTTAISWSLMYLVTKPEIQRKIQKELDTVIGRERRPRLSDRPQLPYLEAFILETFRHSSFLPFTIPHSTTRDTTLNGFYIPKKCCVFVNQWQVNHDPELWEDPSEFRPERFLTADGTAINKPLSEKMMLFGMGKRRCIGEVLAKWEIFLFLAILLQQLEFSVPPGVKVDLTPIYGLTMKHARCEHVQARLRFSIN

Beta-galactosidase = Beta-galactosidase (Escherichia coli, UniProt Q8VNN2); test: Dose response counterscreen for EBI2 assay utilizing the enzyme, b-galactosidase.; type: functional
[7] = MC4R antagonists, dose response, counter-screen for LGR2 antagonist project, cell-based, plate reader, cherry pick (AID 743444); type: functional;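 also: transfected HEK 293 cells stimulated with alpha-MSH peptide; potency of inhibitors of the alpha-MSH evoked signal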
[8] = LGR2 antagonists, dose response, cell-based, HEK293, CRE-luciferase reporter, cherry pick (AID 743342); type: functional
[9] = A549 cell cytotoxicity, dose response, cytotoxicity control, plate reader, cherry-pick, antagonist series (AID 743412); type: functional, cell-based
[10] = target: 1-phosphatidylinositol 4,5-bisphosphate phosphodiesterase gamma-1 (Homo sapiens, UniProt P19174); test: Counterscreen for inhibitors of phospholipase C isozymes (PLC-B3): Fluorescence-based biochemical high throughput dose response assay to identify inhibitors of phospholipase C isozymes (PLC-gamma1).
[11] = target: 1-phosphatidylinositol 4,5-bisphosphate phosphodiesterase beta-3 (Homo sapiens, UniProt Q01970); test: Fluorescence-based biochemical high throughput dose response assay to identify inhibitors of phospholipase C isozymes (PLC-B3).
[12] = HepG2 cell cytotoxicity, dose response, cytotoxicity control, ATP luminescence, cherry-pick, set 6 (AID 1053125); type: functional, cell-based
[13] = target: T2, RNA-binding protein pos-1 (Caenorhabditis elegans, UniProt G5EF15); test: inhibitors of POS-1/mex-3 RNA binding, dose response, biochemical, fluorescence polarization (AID 1964);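 also: purified POS-1 fused to maltose binding protein made in E. coli; potency of compounds blocking POS-1 binding to fluorescent RNA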
T2 sequence (G5EF15 whole entry): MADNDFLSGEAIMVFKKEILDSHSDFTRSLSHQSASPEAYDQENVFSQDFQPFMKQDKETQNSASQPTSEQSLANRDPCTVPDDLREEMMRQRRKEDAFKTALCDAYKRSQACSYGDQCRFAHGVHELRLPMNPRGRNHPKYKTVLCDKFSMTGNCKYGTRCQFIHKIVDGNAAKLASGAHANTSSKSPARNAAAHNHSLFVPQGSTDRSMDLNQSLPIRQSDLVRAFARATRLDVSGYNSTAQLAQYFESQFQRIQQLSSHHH

[14] = target: T3, Zinc finger protein mex-5 (Caenorhabditis elegans, UniProt Q9XUB2); test: MEX-5/TCR-2 RNA interaction inhibitors, dose response, biochemical, C. elegans, fluorescence polarization (AID 1960)
T3 sequence (Q9XUB2 whole entry): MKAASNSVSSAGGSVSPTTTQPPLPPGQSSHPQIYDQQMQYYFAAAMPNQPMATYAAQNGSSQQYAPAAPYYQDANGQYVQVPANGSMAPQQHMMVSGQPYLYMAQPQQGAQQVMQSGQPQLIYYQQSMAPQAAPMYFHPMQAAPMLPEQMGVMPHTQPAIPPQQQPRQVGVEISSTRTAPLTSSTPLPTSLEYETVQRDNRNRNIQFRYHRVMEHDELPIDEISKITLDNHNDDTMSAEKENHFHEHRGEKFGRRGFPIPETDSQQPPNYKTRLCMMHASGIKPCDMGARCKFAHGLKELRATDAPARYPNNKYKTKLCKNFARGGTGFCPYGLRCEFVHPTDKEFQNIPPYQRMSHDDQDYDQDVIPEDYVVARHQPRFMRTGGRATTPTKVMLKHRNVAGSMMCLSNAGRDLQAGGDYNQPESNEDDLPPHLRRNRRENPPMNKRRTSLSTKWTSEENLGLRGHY

[15] = Late stage assay provider results from the probe development effort to identify inhibitors of the Plasmodium falciparum M18 Aspartyl Aminopeptidase (M18AAP): radiolabel-based cell-based dose response assay to identify compounds that inhibit P. falciparum growth in RBCs, Set 2..; type: functional
[16] = Shn3 3'UTR reporter inhibitors, dose response, cell-based, Clone20 osteoblasts, firefly luciferase, cherry-picked (AID 624132); type: functional;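 also: firefly luciferase luminescence from reporter carrying the Shn3 3'UTR in osteoblasts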
INS1 = test: beta cell apoptosis inhibitors, cytokine rescue, dose response, luminescence, retest (AID 449756); type: functional, cell-based; conditions: Rattus norvegicus;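 also: cell death triggered by IL-1 beta plus TNF-alpha plus IFN-gamma mixture; protective hits raise ATP signal compared with cytokine alone wells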
[17] = HepG2 cell cytotoxicity, dose response, cytotoxicity control for Shn3 inhibitor project, CellTiter-Glo, cherry-picked (AID 624134); type: functional, cell-based
[18] = target: Disintegrin and metalloproteinase domain-containing protein 17 (Homo sapiens, UniProt P78536); test: exosite inhibitors of ADAM17, dose response, biochemical (AID 743260)
[19] = ADAM10 protease inhibitors, dose response, selectivity assay for ADAM17 exosite inhibitor project, biochemical, FRET peptide substrate, recombinant human ADAM10 (AID 743259);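 also: ADAM10 enzyme cleaving a FRET peptide substrate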
[20] = control 3'UTR Renilla luciferase suppression, dose response, counter-screen for Shn3 inhibitor project, cell-based, Clone20-Shn3RL, cherry-picked (AID 624133); type: functional
[21] = target: Oxysterols receptor LXR-beta (Homo sapiens, UniProt P55055); type: functional, cell-based;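 also: agonist activity at LXR measured by a cell-based luminescence readout across a dose range, run as a counterscreen for daf-12 agonists; HEK293 cells with Gal4-LXR fusion and GAL4-driven luciferase reporter; potency for activation of Gal4-LXR reporter so compounds are agonists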
Oxysterols receptor LXR-beta, sequence (P55055 whole entry, the tested form may be a part): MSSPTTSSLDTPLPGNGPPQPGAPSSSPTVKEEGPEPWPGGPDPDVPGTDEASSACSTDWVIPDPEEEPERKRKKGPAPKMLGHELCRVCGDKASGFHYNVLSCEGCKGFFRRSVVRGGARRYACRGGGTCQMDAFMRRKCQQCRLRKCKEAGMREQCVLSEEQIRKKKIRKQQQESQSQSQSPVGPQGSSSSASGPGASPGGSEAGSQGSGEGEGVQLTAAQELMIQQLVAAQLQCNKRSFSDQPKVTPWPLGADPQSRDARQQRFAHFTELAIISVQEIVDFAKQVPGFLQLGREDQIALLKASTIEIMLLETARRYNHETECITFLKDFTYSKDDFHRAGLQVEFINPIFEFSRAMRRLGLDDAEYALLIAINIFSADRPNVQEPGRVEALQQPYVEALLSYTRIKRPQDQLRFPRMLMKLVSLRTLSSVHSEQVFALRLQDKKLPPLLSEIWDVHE

1-phosphatidylinositol 4,5-bisphosphate phosphodiesterase beta-3, sequence (Q01970 whole entry): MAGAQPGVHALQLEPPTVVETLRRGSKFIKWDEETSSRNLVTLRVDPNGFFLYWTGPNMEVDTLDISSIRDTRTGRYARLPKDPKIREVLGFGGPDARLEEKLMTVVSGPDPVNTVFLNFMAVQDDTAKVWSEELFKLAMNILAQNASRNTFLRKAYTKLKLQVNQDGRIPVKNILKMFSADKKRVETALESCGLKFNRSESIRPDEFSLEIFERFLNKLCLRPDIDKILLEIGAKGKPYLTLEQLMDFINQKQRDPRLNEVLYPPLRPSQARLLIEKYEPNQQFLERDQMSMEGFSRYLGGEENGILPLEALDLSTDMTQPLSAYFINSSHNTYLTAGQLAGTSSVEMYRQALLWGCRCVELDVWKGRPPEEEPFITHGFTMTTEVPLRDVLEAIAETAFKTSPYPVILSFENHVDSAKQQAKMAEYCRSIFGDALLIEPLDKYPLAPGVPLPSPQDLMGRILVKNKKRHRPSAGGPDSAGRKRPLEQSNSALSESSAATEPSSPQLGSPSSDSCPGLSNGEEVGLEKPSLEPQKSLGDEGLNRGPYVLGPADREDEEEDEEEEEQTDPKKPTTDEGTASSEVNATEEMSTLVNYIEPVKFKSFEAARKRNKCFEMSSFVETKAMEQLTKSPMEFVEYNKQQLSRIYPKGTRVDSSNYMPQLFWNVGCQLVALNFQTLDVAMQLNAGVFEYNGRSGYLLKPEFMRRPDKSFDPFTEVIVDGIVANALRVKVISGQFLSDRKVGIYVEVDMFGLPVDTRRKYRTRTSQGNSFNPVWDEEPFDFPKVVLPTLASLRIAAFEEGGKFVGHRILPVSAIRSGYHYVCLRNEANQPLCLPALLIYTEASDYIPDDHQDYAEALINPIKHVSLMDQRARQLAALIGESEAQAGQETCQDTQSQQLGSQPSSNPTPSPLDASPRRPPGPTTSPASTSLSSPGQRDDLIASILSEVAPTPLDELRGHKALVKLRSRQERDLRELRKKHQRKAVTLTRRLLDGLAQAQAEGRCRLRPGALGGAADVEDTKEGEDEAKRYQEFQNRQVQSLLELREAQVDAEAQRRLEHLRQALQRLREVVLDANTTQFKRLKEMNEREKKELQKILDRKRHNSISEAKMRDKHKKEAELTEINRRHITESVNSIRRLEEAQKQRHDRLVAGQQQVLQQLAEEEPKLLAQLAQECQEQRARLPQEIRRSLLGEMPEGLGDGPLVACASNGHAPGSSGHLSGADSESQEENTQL
Disintegrin and metalloproteinase domain-containing protein 17, sequence (P78536 whole entry, the tested form may be a part): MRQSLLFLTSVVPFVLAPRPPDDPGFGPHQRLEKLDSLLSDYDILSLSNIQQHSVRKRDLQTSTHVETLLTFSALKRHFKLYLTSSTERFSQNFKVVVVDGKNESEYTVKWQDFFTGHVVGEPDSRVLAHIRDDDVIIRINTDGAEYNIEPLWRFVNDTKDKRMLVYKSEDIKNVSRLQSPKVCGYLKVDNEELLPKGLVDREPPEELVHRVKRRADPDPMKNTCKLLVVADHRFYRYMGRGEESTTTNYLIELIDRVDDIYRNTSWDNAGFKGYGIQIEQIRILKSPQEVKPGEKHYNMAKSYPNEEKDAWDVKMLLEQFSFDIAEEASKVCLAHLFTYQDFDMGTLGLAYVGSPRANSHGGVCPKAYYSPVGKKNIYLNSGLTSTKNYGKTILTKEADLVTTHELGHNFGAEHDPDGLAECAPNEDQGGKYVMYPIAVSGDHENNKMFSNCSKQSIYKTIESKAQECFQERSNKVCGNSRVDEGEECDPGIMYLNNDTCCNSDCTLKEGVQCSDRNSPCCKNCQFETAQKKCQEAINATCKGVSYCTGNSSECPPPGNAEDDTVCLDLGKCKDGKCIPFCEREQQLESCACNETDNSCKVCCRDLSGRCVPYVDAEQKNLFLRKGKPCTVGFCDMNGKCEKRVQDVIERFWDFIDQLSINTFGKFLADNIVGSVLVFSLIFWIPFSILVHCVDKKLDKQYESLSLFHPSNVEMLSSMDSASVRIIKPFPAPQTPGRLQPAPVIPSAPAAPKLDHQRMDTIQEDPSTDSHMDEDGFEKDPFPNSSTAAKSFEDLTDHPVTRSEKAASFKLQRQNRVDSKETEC
Beta-galactosidase, sequence (Q8VNN2 whole entry): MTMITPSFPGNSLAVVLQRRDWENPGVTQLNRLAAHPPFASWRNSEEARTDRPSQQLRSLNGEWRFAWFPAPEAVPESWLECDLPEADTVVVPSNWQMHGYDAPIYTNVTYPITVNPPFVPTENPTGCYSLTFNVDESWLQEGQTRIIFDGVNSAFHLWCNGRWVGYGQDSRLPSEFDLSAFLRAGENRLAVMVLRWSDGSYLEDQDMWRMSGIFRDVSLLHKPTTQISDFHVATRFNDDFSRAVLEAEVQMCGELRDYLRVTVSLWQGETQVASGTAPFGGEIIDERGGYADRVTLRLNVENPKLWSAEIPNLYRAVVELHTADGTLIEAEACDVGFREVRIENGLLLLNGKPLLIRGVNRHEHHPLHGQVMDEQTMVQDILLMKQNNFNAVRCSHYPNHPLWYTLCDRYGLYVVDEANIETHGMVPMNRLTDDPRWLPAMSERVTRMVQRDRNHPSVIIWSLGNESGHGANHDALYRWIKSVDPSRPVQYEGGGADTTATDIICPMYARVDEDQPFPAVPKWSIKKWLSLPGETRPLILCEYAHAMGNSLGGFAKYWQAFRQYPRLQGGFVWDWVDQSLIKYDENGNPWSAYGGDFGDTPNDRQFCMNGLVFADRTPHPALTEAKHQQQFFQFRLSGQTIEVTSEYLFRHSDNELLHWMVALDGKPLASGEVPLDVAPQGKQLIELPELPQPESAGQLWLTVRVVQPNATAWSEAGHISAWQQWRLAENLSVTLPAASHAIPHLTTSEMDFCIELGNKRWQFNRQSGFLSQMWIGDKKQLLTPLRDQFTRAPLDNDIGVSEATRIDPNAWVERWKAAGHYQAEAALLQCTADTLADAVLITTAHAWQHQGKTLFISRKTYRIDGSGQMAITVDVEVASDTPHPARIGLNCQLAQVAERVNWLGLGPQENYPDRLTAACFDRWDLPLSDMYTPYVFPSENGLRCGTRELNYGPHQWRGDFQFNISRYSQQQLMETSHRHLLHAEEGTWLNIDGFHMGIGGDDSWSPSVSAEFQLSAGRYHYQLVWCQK
Cytochrome P450 2C19, sequence (P33261 whole entry): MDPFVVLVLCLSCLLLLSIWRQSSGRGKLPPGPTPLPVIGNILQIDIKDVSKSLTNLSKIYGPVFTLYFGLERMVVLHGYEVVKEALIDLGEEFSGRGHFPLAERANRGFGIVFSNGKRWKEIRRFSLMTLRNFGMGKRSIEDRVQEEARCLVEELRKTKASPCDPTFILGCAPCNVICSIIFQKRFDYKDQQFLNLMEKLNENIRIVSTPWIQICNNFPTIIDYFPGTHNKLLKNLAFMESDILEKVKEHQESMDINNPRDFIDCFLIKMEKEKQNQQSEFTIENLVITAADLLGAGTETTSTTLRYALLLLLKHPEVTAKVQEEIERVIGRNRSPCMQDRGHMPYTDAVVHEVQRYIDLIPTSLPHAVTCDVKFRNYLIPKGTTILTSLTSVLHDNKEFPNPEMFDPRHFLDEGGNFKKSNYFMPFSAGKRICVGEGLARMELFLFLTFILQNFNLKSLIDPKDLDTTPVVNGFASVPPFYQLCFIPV

Structure (SMILES): O=C(Nc1ccccc1)N1CCCCN2[C@@H](CO)[C@@H](c3ccc(C#Cc4ccccc4)cc3)[C@@H]2C1
AC50 [1]: 7.13 µM (active) | AC50 [2]: 19.3 µM (active) | AC50 [3]: 17.5 µM (active) | AC50 [4]: 13.7 µM (active)

Structure (SMILES): N#Cc1cc2ccc(OCCCCC(=O)O)cc2oc1=O
IC50 [5]: > 100 µM (inactive) | IC50 [6]: > 100 µM (inactive)

AC50 (Cytochrome P450 2C19): 10 µM (inconclusive) | AC50 (Cytochrome P450 1A2): 20 µM (inconclusive) | IC50 (Beta-galactosidase): > 80 µM (inactive)
Structure (SMILES): CCOC(=O)N1CCN(C(=O)c2cc(-c3ccc(F)cc3)[nH]c2C)CC1

Structure (SMILES): C[C@H]1CCCCO[C@@H](CN(C)C(=O)Nc2ccc(F)cc2)[C@@H](C)CN([C@@H](C)CO)C(=O)c2cc(NC(=O)C3CCCCC3)ccc2O1
AC50 [7]: 66 µM (active) | AC50 [8]: 3.88 µM (active) | AC50 [9]: 44.2 µM (active)

IC50 [10]: > 122 µM (inactive) | IC50 [11]: > 122 µM (inactive)
Structure (SMILES): ONC(=Nc1ccc(Cl)cc1)c1ccccc1

Structure (SMILES): N#CC1=C(N)OC2=C(C(=O)CCC2)C1c1cc2c(cc1Br)OCO2 (stereo not given)
AC50 [12]: > 52 µM (inactive) | EC50 [13]: > 300 µM (not active) | EC50 [14]: > 300 µM (not active)

Structure (SMILES): Cc1cccc2c(NCCc3ccc(O)c(O)c3)ccnc12
IC50 [15]: 4.7 µM (active)

Structure (SMILES): Cc1cccc(Oc2cc(NC(=O)c3ccccc3)cc([N+](=O)[O-])c2)c1
AC50 [16]: 3.09 µM (active) | AC50 (INS1): 3.57 µM (active) | AC50 [17]: 45.5 µM (active) | IC50 [18]: > 69.5 µM (inactive) | IC50 [19]: > 69.5 µM (inactive) | AC50 [20]: 13.6 µM (active)

EC50 [21]: > 67.5 µM (inactive)
Structure (SMILES): Cn1c(NC(=O)CCC2CCCCC2)cc(=O)n(C)c1=O
